# Measurements as given in article PMC8625360 (Cells, 2021).
# Peptide text beside a SMILES is read from it. * marks the point of attachment. 5FAM = O=C1OC2(c3ccc(O)cc3Oc3cc(O)ccc32)c2ccc(C(=O)*)cc21
# Columns and labels:
# [1] = molecular target: T1, LC3B (Homo sapiens, UniProt Q9GZQ8); test: Fluorescence polarization binding of CF-labelled LIR peptides to purified LC3B; settings: CF-labelled peptide 2.5 µM (25 µL) + LC3B 0.2–330 µM (25 µL), HEPES buffer 50 mM pH 7.2, 50 mM NaCl, 2 mM DTE, one site-specific binding fit, three independent replications, read-out: Kd (dissociation constant) for LC3B
# T1 construct: His6 (N, cleaved yes); MBP (N, cleaved yes); made in house; host or cells: E. coli BL21-codonplus (DE3)-RIL
# Protocol: Binding experiments were done in a black 384-microwell plate. […] Each CF-labelled peptide in a volume of 25 µL at a concentration of 2.5 µM was combined with 25 µL of LC3B at a concentration range from 0.2–330 µM. The fluorescent polarization was measured with the excitation and emission wavelengths of […], respectively. The obtained polarization data were corrected by subtraction of the peptide alone (blank). The dissociation constant (Kd) was quantified using a nonlinear curve fitting the site-specific binding on GraphPad Prism 5.0 for Windows (GraphPad Software, La Jolla, CA, USA). Experiments were performed in three independent replications.
# [2] = test system: HepG2 WT cells; test: Colocalization of EGFP-ATP7B-WT with TGN, lysosome (LAMP1) and LC3B markers; type: cell-based, human; settings: 200 µM BCS, 24 h
# Protocol: For the detection of the effect of copper on autophagosome-lysosome fusion, 50,000 cells of each HepG2 WT and HepG2 ATP7B^−/− were grown on laminin-coated coverslips for 24 h, transduced with BacMam-GFP-RFP-LC3B overnight according to the manufacturer’s recommendations. The cells were then treated with CuSO4 at a concentration range from 100 µM to 800 µM for 24 h, fixed with 4% paraformaldehyde for 15 min and finally stained with 250 ng/mL DAPI (Thermo Fisher scientific, Molecular Probes, D1306) for 5 min. The coverslips were fixed on a glass slide using Mowiol 4–88 (Sigma Aldrich, 81381). The fluorescence cell imaging was acquired using a confocal Zeiss LSM 780 microscope with a 63 × 1.40 Oil DIC M27. […] Red and yellow puncta count per cell was done using the particle analysis in image J. For protein ATP7B trafficking analysis, 50,000 cells of HepG2 WT and HepG2 ATP7B^−/− were cultured in a 500 µL cell culture medium on a laminin-coated coverslip for 24 h, then transfected with EGFP-ATP7B. After 6 h post transfection, cells were transduced with BacMam-RFP-Golgi or the BacMam-RFP-Lysosome overnight, then treated with various concentrations of CuSO4 or 200 µM of bathocuproine disulfonate (BCS) for 24 h or EBSS for 2 h, respectively. To detect LC3B or endogenous ATP7B, the fixed cells were incubated with anti-LC3B or anti-ATP7B antibodies at 4 °C overnight followed by secondary antibody incubation, Alexa Fluor 568 goat anti-rabbit, at temperature for 1 h in the dark. Pearson’s correlation coefficient was analyzed per cell using the colocalization threshold of ImageJ Fiji.
# [3] = molecular target: T1, LC3B; test: Pull-down with resin-bound GST-LC3B as bait from transfected HEK293H cell lysate; type: binding; settings: 500 µg HEK293H lysate, western blot, repeated two times
# Protocol: GST tagged LC3B was used as a bait to trap the full-length ATP7B from a lysate obtained from ATP7B transfected human embryonic kidney 293 H cell line (HEK293H) cells. To this end, 100,000 cells of HEK293H were cultured in 1 mL of DMEM media (Thermo Fisher Scientific, 31966-047) plus 10% fetal bovine serum (FBS) (Fisher Scientific, 10309433) and 1% Penicillin-Streptomycin (P/S) (Thermo Fisher Scientific, 15140122). Once the cells reached 80% confluence, cells were transfected with pIRES-GFP carrying full-length ATP7B (NM_000053.4) or its W1452A/L1455A mutant using Lipofectamine LTX and plus reagent (Invitrogen, 15338100). […] Blots were imaged on an Infrared fluorescence imaging system using Li-Cor 9120 Odyssey (LI-COR Biosciences, Bad Homburg, Germany). Protein band intensity quantification was done using ImageJ (National Institutes of Health, Bethesda, MD, USA).
Molecule,Kd [1] [µM],other results
"Cc1cc(-c2ccc(S(=O)(=O)O)cc2)c2ccc3c(-c4ccc(S(=O)(=O)O)cc4)cc(C)nc3c2n1 [BCS, bathocuproine disulfonate]",,"fold elevation of ATP7B fraction in the TGN vs basal medium condition [2]: about 12.6 fold; ATP7B fraction in the TGN ([2]; from mean Pearson's correlation coefficient, 30 cells): 32.8%"
"CC(C)C[C@H](NC(=O)[C@H](C)NC(=O)[C@H](CC(C)C)NC(=O)[C@H](CO)NC(=O)[C@H](C)NC(=O)[C@H](CCCCN)NC(=O)[C@H](CC(=O)O)NC(=O)CNC(=O)[C@H](CC(=O)O)NC(=O)[C@H](CC(=O)O)NC(=O)[C@H](CC(=O)O)NC(=O)[C@H](C)NC(=O)c1ccc2c(c1)C(=O)OC21c2ccc(O)cc2Oc2cc(O)ccc21)C(=O)N[C@@H](CC(N)=O)C(=O)NCC(=O)N[C@@H](CCCNC(=N)N)C(=O)N[C@@H](CC(=O)O)C(N)=O [LIR3^W1452A,L1455A] (5FAM-ADDDGDKASLALNGRD-NH2)",> 250,
CC(C)C[C@H](NC(=O)[C@H](CO)NC(=O)[C@H](C)NC(=O)[C@H](CCCCN)NC(=O)[C@H](CC(=O)O)NC(=O)CNC(=O)[C@H](CC(=O)O)NC(=O)[C@H](CC(=O)O)NC(=O)[C@H](CC(=O)O)NC(=O)[C@H](C)NC(=O)c1ccc2c(c1)C(=O)OC21c2ccc(O)cc2Oc2cc(O)ccc21)C(=O)N[C@@H](CC(C)C)C(=O)N[C@@H](CC(C)C)C(=O)N[C@@H](CC(N)=O)C(=O)NCC(=O)N[C@@H](CCCNC(=N)N)C(=O)N[C@@H](CC(=O)O)C(N)=O [LIR3^W1452A] (5FAM-ADDDGDKASLLLNGRD-NH2),> 250,
wild-type ATP7B: full-length recombinant copper-transporting ATPase ATP7B from transfected HEK293H cell lysate (protein) MPEQERQITAREGASRKILSKLSLPTRAWEPAMKKSFAFDNVGYEGGLDGLGPSSQVATSTVRILGMTCQSCVKSIEDRISNLKGIISMKVSLEQGSATVKYVPSVVCLQQVCHQIGDMGFEASIAEGKAASWPSRSLPAQEAVVKLRVEGMTCQSCVSSIEGKVRKLQGVVRVKVSLSNQEAVITYQPYLIQPEDLRDHVNDMGFEAAIKSKVAPLSLGPIDIERLQSTNPKRPLSSANQNFNNSETLGHQGSHVVTLQLRIDGMHCKSCVLNIEENIGQLLGVQSIQVSLENKTAQVKYDPSCTSPVALQRAIEALPPGNFKVSLPDGAEGSGTDHRSSSSHSPGSPPRNQVQGTCSTTLIAIAGMTCASCVHSIEGMISQLEGVQQISVSLAEGTATVLYNPSVISPEELRAAIEDMGFEASVVSESCSTNPLGNHSAGNSMVQTTDGTPTSVQEVAPHTGRLPANHAPDILAKSPQSTRAVAPQKCFLQIKGMTCASCVSNIERNLQKEAGVLSVLVALMAGKAEIKYDPEVIQPLEIAQFIQDLGFEAAVMEDYAGSDGNIELTITGMTCASCVHNIESKLTRTNGITYASVALATSKALVKFDPEIIGPRDIIKIIEEIGFHASLAQRNPNAHHLDHKMEIKQWKKSFLCSLVFGIPVMALMIYMLIPSNEPHQSMVLDHNIIPGLSILNLIFFILCTFVQLLGGWYFYVQAYKSLRHRSANMDVLIVLATSIAYVYSLVILVVAVAEKAERSPVTFFDTPPMLFVFIALGRWLEHLAKSKTSEALAKLMSLQATEATVVTLGEDNLIIREEQVPMELVQRGDIVKVVPGGKFPVDGKVLEGNTMADESLITGEAMPVTKKPGSTVIAGSINAHGSVLIKATHVGNDTTLAQIVKLVEEAQMSKAPIQQLADRFSGYFVPFIIIMSTLTLVVWIVIGFIDFGVVQRYFPNPNKHISQTEVIIRFAFQTSITVLCIACPCSLGLATPTAVMVGTGVAAQNGILIKGGKPLEMAHKIKTVMFDKTGTITHGVPRVMRVLLLGDVATLPLRKVLAVVGTAEASSEHPLGVAVTKYCKEELGTETLGYCTDFQAVPGCGIGCKVSNVEGILAHSERPLSAPASHLNEAGSLPAEKDAVPQTFSVLIGNREWLRRNGLTISSDVSDAMTDHEMKGQTAILVAIDGVLCGMIAIADAVKQEAALAVHTLQSMGVDVVLITGDNRKTARAIATQVGINKVFAEVLPSHKVAKVQELQNKGKKVAMVGDGVNDSPALAQADMGVAIGTGTDVAIEAADVVLIRNDLLDVVASIHLSKRTVRRIRINLVLALIYNLVGIPIAAGVFMPIGIVLQPWMGSAAMAASSVSVVLSSLQLKCYKKPDLERYEAQAHGHMKPLTASQVSVHIGMDDRWRDSPRATPWDQVSYVSQVSLSSLTSDKPSRHSAAADDDGDKWSLLLNGRDEEQYI,,ATP7B in elution fraction of GST-LC3B pull-down [3]: detected in the elution fraction

# Second part, led by results:
Kd [1] [µM],Molecule,other results
> 250,CSCC[C@H](NC(=O)c1ccc2c(c1)C(=O)OC21c2ccc(O)cc2Oc2cc(O)ccc21)C(=O)N[C@@H](CCCCN)C(=O)N[C@@H](CCCCN)C(=O)N[C@@H](CO)C(=O)N[C@@H](Cc1ccccc1)C(=O)N[C@@H](C)C(=O)N[C@@H](Cc1ccccc1)C(=O)N[C@@H](CC(=O)O)C(=O)N[C@@H](CC(N)=O)C(=O)N[C@H](C(=O)NCC(=O)N[C@@H](Cc1ccc(O)cc1)C(=O)N[C@@H](CCC(=O)O)C(=O)NCC(=O)NCC(=O)N[C@@H](CC(C)C)C(=O)N[C@@H](CC(=O)O)C(N)=O)C(C)C [LIR1] (5FAM-MKKSFAFDNVGYEGGLD-NH2),
> 250,CC(C)[C@H](NC(=O)[C@H](Cc1ccc(O)cc1)NC(=O)[C@H](CO)NC(=O)[C@@H](NC(=O)[C@H](CCC(N)=O)NC(=O)[C@H](CC(=O)O)NC(=O)[C@H](Cc1c[nH]c2ccccc12)NC(=O)[C@@H]1CCCN1C(=O)[C@@H](NC(=O)[C@H](C)NC(=O)[C@H](CCCNC(=N)N)NC(=O)[C@@H]1CCCN1C(=O)[C@H](CO)NC(=O)[C@H](CC(=O)O)NC(=O)c1ccc2c(c1)C(=O)OC21c2ccc(O)cc2Oc2cc(O)ccc21)[C@@H](C)O)C(C)C)C(=O)N[C@@H](CO)C(=O)N[C@@H](CCC(N)=O)C(N)=O [LIR2] (5FAM-DSPRATPWDQVSYVSQ-NH2),
